Key:
[1] = biological target: Ribosomal protein S6 kinase alpha-5 (Homo sapiens) (UniProt O75582); details: Compound concentration 1000.0 nM
[2] = biological target: Mitogen-activated protein kinase kinase kinase 13 (Homo sapiens) (UniProt O43283); details: Compound concentration 1000.0 nM
[3] = biological target: Kappa-type opioid receptor (Rattus norvegicus) (UniProt P34975); experiment: KAPPA/R Cerep selectivity data (BI); details: Compound concentration 20.0 uM
[4] = biological target: Platelet-activating factor receptor (Homo sapiens) (UniProt P25105); experiment: PAF Cerep selectivity data (BI); details: filed as agonist, Compound concentration 20.0 uM
[5] = biological target: Mitogen-activated protein kinase 1 (Homo sapiens) (UniProt P28482); experiment: MAPK1 Invitrogen selectivity data (BI); details: Compound concentration 3.0 uM
[6] = biological target: Leucine-rich repeat serine/threonine-protein kinase 2 (Homo sapiens) (UniProt Q5S007); experiment: LRRK2 Invitrogen selectivity data (BI); details: Compound concentration 3.0 uM
[7] = biological target: Calcium/calmodulin-dependent protein kinase type 1 (Homo sapiens) (UniProt Q14012); experiment: CAMK1_A Invitrogen selectivity data (BI); details: Compound concentration 3.0 uM
[8] = biological target: ALK tyrosine kinase receptor (Homo sapiens) (UniProt Q9UM73); experiment: ALK Invitrogen selectivity data (BI); details: Compound concentration 3.0 uM
[9] = biological target: Endothelin receptor type B (Homo sapiens) (UniProt P24530); experiment: ETB/H Cerep selectivity data (BI); details: Compound concentration 20.0 uM
[10] = system: Serine/threonine-protein kinase B-raf (Homo sapiens), P15056 [V600E]; experiment: BRAF V599E Invitrogen selectivity data (BI); details: Compound concentration 3.0 uM
[11] = biological target: C-C chemokine receptor type 2 (Homo sapiens) (UniProt P41597); experiment: CCR2/H AG Cerep selectivity data (BI); details: filed as agonist, Compound concentration 20.0 uM
[12] = biological target: Dual specificity protein kinase CLK1 (Homo sapiens) (UniProt P49759); experiment: CLK1 Invitrogen selectivity data (BI); details: Compound concentration 3.0 uM
[13] = biological target: T1, Serine/threonine-protein kinase Sgk3 (Homo sapiens) (UniProt Q96BR1); experiment: SGKL Invitrogen selectivity data (BI); details: Compound concentration 3.0 uM
T1 sequence (whole entry): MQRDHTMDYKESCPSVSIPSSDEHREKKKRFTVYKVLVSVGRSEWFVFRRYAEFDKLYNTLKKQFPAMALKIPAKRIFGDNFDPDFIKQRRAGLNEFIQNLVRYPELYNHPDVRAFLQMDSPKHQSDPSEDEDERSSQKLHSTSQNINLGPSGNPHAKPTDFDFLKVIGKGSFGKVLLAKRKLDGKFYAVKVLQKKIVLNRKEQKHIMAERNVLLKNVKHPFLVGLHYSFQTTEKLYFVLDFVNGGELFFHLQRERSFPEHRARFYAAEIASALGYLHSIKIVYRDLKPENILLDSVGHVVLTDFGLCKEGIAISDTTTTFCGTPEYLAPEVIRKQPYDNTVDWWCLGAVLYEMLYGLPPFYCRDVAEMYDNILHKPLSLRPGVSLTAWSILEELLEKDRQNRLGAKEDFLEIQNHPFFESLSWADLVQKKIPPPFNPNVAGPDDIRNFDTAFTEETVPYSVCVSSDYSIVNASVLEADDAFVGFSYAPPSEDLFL

[14] = biological target: T2, Ephrin type-B receptor 3 (Homo sapiens) (UniProt P54753); experiment: EPHB3 Invitrogen selectivity data (BI); details: Compound concentration 3.0 uM
T2 sequence (whole entry): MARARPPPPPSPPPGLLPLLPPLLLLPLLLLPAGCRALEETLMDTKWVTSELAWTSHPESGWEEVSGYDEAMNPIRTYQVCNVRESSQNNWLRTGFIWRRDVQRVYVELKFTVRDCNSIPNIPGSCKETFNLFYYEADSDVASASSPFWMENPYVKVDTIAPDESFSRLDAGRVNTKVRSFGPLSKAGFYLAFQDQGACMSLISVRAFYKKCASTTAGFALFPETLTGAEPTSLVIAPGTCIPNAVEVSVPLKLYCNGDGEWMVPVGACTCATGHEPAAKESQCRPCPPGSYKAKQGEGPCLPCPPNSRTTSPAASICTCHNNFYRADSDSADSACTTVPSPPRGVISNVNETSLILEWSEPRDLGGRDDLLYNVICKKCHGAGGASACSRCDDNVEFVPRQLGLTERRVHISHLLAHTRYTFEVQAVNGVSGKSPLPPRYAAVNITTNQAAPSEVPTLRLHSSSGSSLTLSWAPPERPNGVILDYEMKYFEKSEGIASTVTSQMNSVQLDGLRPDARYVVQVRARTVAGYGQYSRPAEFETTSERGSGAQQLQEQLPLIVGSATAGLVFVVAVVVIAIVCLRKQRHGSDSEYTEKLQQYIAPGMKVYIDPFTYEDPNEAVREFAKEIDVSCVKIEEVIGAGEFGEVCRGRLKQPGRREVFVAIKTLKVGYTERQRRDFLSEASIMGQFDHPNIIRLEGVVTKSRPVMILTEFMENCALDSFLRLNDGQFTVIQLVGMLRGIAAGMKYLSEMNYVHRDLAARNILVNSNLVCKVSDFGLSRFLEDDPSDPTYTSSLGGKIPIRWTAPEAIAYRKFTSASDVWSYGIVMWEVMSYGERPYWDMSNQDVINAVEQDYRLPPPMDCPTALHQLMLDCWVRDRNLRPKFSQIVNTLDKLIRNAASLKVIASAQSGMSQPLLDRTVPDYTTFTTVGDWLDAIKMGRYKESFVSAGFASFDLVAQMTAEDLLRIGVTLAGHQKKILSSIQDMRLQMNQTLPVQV

[15] = biological target: Small conductance calcium-activated potassium channel protein 1 (Rattus norvegicus) (UniProt P70606); experiment: K+/CA+/R Cerep selectivity data (BI); details: Compound concentration 20.0 uM
[16] = biological target: Serine/threonine-protein kinase PAK 4 (Homo sapiens) (UniProt O96013); experiment: PAK4 Invitrogen selectivity data (BI); details: Compound concentration 3.0 uM
[17] = biological target: Beta-1 adrenergic receptor (Homo sapiens) (UniProt P08588); experiment: BETA1/HUM Cerep selectivity data (BI); details: Compound concentration 20.0 uM
[18] = biological target: Receptor-type tyrosine-protein kinase FLT3 (Homo sapiens) (UniProt P36888); experiment: FLT3 Invitrogen selectivity data (BI); details: Compound concentration 3.0 uM
[19] = biological target: Thyroid hormone receptor alpha (Rattus norvegicus) (UniProt P63059); experiment: THYROID HORM Eurofins-Panlabs selectivity data (BI); details: Compound concentration 10.0 uM
[20] = biological target: Androgen receptor (Rattus norvegicus) (UniProt P15207); experiment: TESTOST/RA Eurofins-Panlabs selectivity data (BI); details: Compound concentration 10.0 uM

Measured: residual activity

Sequence of Mitogen-activated protein kinase 1 (Homo sapiens) (P28482 whole entry): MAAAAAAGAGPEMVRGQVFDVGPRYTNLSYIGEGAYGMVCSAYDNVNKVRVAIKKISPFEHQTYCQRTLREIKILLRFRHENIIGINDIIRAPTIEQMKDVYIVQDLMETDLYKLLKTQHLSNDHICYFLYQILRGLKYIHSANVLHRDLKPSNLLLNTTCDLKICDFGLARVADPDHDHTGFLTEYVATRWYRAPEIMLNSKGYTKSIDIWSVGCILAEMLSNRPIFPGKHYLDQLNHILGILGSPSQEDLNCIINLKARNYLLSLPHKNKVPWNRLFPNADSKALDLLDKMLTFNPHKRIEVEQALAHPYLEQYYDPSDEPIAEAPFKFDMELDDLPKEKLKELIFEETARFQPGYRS
Sequence of Androgen receptor (Rattus norvegicus) (P15207 whole entry S389L): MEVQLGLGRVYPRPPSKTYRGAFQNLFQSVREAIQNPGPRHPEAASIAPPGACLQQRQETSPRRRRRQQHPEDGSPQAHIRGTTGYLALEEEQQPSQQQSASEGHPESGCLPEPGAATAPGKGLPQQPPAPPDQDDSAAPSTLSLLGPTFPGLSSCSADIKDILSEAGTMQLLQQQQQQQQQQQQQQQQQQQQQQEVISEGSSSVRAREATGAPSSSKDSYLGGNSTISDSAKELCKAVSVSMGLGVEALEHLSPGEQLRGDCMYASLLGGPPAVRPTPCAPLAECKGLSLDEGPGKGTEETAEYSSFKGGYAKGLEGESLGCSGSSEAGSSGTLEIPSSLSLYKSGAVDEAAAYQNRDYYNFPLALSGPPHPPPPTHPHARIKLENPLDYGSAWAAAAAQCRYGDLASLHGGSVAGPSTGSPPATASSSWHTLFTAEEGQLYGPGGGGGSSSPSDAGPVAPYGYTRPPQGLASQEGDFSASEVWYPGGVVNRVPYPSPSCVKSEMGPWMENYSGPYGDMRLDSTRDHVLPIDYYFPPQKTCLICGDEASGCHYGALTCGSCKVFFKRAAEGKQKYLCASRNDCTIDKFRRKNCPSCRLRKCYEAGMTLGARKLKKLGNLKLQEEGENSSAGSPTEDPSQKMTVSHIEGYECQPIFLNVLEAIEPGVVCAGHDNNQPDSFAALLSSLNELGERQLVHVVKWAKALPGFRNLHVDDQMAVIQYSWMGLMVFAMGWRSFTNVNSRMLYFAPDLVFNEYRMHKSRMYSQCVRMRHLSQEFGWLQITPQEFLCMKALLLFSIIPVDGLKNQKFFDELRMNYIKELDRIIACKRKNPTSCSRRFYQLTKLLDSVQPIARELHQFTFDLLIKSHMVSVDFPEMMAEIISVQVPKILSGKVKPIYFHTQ
Sequence of ALK tyrosine kinase receptor (Homo sapiens) (Q9UM73 19-1620 limits assumed): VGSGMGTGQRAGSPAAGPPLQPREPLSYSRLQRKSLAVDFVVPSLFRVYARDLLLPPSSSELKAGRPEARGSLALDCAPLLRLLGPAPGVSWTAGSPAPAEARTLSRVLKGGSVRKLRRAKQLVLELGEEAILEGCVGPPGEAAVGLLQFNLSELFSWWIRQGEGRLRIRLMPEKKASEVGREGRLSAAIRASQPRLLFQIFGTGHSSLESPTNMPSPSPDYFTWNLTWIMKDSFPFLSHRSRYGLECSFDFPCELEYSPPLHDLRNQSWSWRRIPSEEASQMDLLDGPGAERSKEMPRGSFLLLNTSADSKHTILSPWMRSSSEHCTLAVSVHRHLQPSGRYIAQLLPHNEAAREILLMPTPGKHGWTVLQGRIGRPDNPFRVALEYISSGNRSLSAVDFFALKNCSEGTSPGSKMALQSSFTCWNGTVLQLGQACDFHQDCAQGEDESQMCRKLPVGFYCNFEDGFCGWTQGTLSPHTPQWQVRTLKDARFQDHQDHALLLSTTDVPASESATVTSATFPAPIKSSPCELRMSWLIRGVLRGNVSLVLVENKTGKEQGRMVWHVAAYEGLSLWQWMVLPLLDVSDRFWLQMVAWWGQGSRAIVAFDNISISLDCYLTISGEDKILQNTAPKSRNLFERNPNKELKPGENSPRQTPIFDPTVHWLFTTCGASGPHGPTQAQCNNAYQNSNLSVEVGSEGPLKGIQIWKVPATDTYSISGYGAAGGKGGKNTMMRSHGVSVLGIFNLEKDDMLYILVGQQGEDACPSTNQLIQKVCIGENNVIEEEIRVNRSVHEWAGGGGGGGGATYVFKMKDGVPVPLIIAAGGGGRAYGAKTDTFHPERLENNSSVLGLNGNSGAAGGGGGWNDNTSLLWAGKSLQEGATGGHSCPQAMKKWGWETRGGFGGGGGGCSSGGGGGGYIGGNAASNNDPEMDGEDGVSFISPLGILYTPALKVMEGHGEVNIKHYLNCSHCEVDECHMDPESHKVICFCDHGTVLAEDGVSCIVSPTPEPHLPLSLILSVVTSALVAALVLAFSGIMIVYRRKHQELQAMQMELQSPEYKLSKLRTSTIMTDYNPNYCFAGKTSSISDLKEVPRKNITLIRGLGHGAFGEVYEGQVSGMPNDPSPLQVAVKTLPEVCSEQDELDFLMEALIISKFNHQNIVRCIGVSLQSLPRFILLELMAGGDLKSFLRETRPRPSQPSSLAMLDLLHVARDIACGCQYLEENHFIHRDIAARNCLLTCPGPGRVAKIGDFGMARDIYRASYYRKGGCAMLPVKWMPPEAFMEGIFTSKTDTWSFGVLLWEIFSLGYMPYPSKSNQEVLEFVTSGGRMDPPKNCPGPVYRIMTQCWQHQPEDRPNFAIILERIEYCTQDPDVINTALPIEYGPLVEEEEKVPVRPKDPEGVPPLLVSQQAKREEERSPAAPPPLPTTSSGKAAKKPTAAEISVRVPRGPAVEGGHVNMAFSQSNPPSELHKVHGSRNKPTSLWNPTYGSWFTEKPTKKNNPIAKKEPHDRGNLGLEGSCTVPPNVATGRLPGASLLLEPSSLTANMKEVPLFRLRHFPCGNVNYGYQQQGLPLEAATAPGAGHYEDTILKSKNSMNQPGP
Sequence of Thyroid hormone receptor alpha (Rattus norvegicus) (P63059 whole entry): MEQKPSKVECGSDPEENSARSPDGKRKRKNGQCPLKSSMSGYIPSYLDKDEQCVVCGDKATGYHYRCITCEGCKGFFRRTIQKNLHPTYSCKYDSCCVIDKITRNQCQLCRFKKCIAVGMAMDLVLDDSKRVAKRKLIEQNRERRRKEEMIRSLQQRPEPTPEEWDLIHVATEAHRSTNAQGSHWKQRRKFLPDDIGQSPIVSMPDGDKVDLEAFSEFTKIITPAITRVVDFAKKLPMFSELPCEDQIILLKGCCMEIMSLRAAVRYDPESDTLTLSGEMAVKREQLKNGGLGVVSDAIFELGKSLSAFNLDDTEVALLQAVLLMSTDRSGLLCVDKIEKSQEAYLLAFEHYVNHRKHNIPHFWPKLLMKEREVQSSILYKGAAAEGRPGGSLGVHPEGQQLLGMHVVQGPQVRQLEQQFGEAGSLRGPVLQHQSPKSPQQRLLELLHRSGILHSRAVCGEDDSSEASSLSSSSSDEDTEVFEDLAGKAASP
Sequence of Endothelin receptor type B (Homo sapiens) (P24530 whole entry): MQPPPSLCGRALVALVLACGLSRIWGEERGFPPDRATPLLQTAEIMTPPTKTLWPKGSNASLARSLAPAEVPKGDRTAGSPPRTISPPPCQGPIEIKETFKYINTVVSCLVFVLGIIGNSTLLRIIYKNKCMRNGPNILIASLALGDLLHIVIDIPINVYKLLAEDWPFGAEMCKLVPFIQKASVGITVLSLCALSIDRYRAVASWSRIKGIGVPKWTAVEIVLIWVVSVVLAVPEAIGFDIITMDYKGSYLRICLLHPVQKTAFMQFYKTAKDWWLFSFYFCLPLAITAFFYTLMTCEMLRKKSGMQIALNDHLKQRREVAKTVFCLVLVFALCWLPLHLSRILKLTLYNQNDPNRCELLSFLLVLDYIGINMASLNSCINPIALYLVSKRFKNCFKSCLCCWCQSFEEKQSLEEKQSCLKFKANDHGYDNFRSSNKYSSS
Sequence of Kappa-type opioid receptor (Rattus norvegicus) (P34975 whole entry): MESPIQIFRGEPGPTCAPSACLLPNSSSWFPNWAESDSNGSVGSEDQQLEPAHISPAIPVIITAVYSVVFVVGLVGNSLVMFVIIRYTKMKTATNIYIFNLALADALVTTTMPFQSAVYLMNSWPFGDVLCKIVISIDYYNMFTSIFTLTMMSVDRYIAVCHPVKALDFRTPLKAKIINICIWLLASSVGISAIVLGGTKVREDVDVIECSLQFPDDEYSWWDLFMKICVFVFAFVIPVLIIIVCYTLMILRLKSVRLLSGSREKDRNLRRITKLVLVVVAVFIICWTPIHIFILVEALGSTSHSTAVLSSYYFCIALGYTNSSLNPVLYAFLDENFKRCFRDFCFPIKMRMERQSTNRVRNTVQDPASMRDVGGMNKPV
Sequence of Ribosomal protein S6 kinase alpha-5 (Homo sapiens) (O75582 whole entry, looked up): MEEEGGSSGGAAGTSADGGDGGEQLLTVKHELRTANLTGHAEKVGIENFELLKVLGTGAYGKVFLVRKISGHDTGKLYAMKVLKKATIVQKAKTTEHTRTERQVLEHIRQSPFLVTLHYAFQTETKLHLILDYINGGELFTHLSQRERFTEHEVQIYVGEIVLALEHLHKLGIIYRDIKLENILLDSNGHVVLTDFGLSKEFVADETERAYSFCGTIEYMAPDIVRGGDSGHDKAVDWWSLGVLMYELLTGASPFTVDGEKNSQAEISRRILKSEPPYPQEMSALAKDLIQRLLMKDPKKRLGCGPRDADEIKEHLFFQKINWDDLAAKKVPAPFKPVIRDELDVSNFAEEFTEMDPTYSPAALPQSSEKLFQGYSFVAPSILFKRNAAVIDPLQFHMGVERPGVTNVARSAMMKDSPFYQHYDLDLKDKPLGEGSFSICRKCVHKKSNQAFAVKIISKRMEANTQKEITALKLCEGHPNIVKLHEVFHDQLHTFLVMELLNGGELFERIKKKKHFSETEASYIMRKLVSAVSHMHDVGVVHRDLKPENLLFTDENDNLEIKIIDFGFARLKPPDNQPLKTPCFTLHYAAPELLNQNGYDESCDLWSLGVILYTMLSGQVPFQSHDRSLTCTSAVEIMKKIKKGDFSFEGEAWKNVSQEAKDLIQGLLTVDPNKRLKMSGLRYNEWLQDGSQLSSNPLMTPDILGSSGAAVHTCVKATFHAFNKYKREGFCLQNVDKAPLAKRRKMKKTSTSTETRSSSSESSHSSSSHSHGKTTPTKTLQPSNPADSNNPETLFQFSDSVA

CN(C)C(=O)Cn1cc(-c2nc(C3(c4ccc(-c5cnc(N)nc5)cc4)CC3)no2)cn1 [BI 0153]
inactive: [1] 67% | [2] 100%

CN(C)C(=O)Cn1cc(-c2nc([C@@](C)(c3ccc(-c4cnc(N)nc4)cc3)C3CC3)no2)cn1 [BI 665915]
inactive: [3] 91% | [4] 65% | [5] 100% | [6] 96% | [7] 102% | [8] 97% | [9] 109% | [10] 97% | [11] 109% | [12] 96.5% | [13] 101% | [14] 97% | [15] 88% | [16] 93.5% | [17] 100% | [18] 89% | [19] 80% | [20] 99%

Reference: ChEMBL document CHEMBL4507276 (2021)
